Experimental data published in patent US20180092393A1, “IRON NICOTINATE COMPOSITION” (NESTEC S.A., priority 2015, published 2018).

Conditions: colour difference vs product with no iron salts; approximately 2.1 mg iron per 100 g; flash pasteurized at 3.05° C. for 2 minutes; 47.3% banana puree
Procedure: Colour measurements were performed in 1×1 cm polystyrene cuvettes using an X-Rite ColorEye 7000A colorimeter. The colorimeter was set up with a D65 light source, 3.0 degree observer angle and with specular component included. The colour difference between the product with no iron salts and the iron fortified product was measured for each iron salt and expressed as ΔEab* using the CIELAB colour scale.

SMILES: O=S(=O)([O-])[O-].[Fe+2] [Ferrous sulphate]
- ΔEab*: 3.26
